Laboratory results published in ChEMBL document CHEMBL3243920, “Quantitative structure-activity relationships of chymotrypsin. On the predictive value of correlation equations” (J Med Chem, 1977).

Test: Inhibition of chymotrypsin (unknown origin)
Conditions: Homo sapiens

Row | Structure (SMILES) | log1/Ki
1 | NC(=O)CCc1ccccc1 | 2.15
2 | NC(=O)CCCc1ccccc1 | 1.92
3 | CC(=O)c1ccc(NC=O)cc1 | 1.72
4 | O=C(CCl)NCCc1ccccc1 | 2
5 | O=C(O)C(Cc1cccc(F)c1)NC(=O)C(F)(F)F (stereo not drawn) | 2.57
6 | CC(=O)NCc1ccccc1 | 2.12
7 | O=CNc1ccccc1 | 2.4
8 | CCC(=O)NCc1ccccc1 | 2.2
9 | O=CNc1ccc(Cl)cc1 | 3.4
10 | NC(=O)Cc1ccccc1 | 1.82
11 | NC(=O)c1ccccc1 | 2
12 | O=C(O)C(Cc1ccccc1)NC(=O)C(F)(F)F (stereo not drawn) | 2.1
13 | N#Cc1ccc(NC=O)cc1 | 1.9
14 | O=CNc1cccc(Cl)c1 | 3.1
15 | NC(=O)CNC(=O)c1ccccc1 | 1.9
16 | O=CNc1ccc([N+](=O)[O-])cc1 | 2.42
17 | CC(=O)NCCc1ccccc1 | 1.94

Row | Structure (SMILES) | log1/Ki
18 | NC(=O)CCc1c[nH]c2ccccc12 | 2.64
19 | O=C(NCCc1c[nH]c2ccccc12)C(F)(F)F | 2.92
20 | O=C(O)C(Cc1ccc(Br)cc1)NC(=O)C(F)(F)F (stereo not drawn) | 3
21 | Cc1cccc(CC(NC(=O)C(F)(F)F)C(=O)O)c1 (stereo not drawn) | 2.35
22 | Cc1ccc(NC=O)cc1 | 2.52
23 | NC(=O)c1ccnc2ccccc12 | 2.08
24 | CC(=O)NCCc1c[nH]c2ccccc12 | 2.74
25 | Cc1ccc(CC(NC(=O)C(F)(F)F)C(=O)O)cc1 (stereo not drawn) | 2.82
26 | COc1cccc(NC=O)c1 | 2.17
27 | CC(=O)Nc1ccccc1 | 1.89
28 | CCC(=O)Nc1ccccc1 | 2.18
29 | O=C(CCl)NCc1ccccc1 | 2.31
30 | O=C(O)C(Cc1ccc(F)cc1F)NC(=O)C(F)(F)F (stereo not drawn) | 2.35
31 | COC(=O)c1nc2ccccc2[nH]1 | 2.25
32 | O=C(O)C(Cc1ccc(F)cc1)NC(=O)C(F)(F)F (stereo not drawn) | 2.89
33 | COc1ccc(NC=O)cc1 | 2.06
